Measurements taken from patent publication US11298561B2, “Method of treating multi-drug resistance biofilm using targeted laser and antibiotics” (priority 2013, dated 2022).
Several values for one entry are separate records, joined by “and”; a condition that tells them apart may be missing. Equal entries are not always repeated. Where two headings read alike, the source gives them in different places.

Assays:
[1] = test system: P. aeruginosa PA 60-65 biofilms; assay: CFU assay of P. aeruginosa PA 60-65 biofilms; type: cell-based, Pseudomonas aeruginosa; conditions: for reduction in P. aeruginosa biofilm viability (CFU): 24 h
Method: (§1) Two MDR clinical wound isolates, namely, methicillin-resistant S. aureus (MRSA) SA5120 and P. aeruginosa PA 60-65, were received as gifts from a repository at the U.S. Army Institute of Surgical Research (JBSA-Fort Sam Houston, Tex.). Biofilms were established on 5-mm glass discs or in 96-well half-area glass-bottom plates that had been pre-treated for 24 h with 1 mg/mL of fibrinogen. Overnight cultures of SA5120 in tryptic soy broth (TSB) were diluted to an optical density at 600 nm (OD600) of 0.1 using TSB supplemented with 10% human plasma, added to empty wells of a 96-well glass-bottom culture plate or to wells containing 5-mm glass discs, and allowed to grow into biofilms for 24 h at 37° C. under static conditions. For PA 60-65, overnight cultures in brain heart infusion broth (BHI) were diluted 20-fold using 20% BHI in phosphate-buffered saline (PBS) supplemented with 0.2% glucose and 0.4% NaCl and grown to an OD600 of 0.5 at 37° C. with shaking at 250 rpm. The bacterial suspension was diluted to an OD600 of 0.01 in PBS, and 20 μL of inoculant was spotted onto 5-mm glass discs placed in 6-well tissue culture plates. Samples were incubated at room temperature for 2 h to allow cell attachment, rinsed in PBS, and then cultured in 20% BHI/0.2% glucose/0.4% NaCl in PBS for 72 h at 37° C. with shaking at 140 rpm. Biofilms were rinsed in PBS and transferred into 96-well glass-bottom plates for subsequent treatment.
(§2) Biofilms grown on glass discs were pre-treated with tGNPs or non-targeted GNPs at 70 μg/mL in PBS for 2 h (SA5120) or 1 h (PA 60-65). The 1-h pre-treatment period for PA 60-65 was selected based upon results from comparison of biofilm dispersion caused by various tGNP incubation times used in combination with laser irradiation (FIG. 10). […] After treatment, samples were analyzed using confocal microscopy, CFU assays, or scanning electron microscopy (SEM).
Biofilms on glass discs were pre-treated with tGNPs at 70 μg/mL in PBS for 2 h (SA5120) or 1 h (PA 60-65). […] Samples were incubated for 24 h at 37° C. and then analyzed using CFU assays or SEM. […]

[2] = test system: planktonic P. aeruginosa PA 60-65 cultures; assay: CFU assay of planktonic P. aeruginosa PA 60-65 cultures; type: cell-based, Pseudomonas aeruginosa; conditions: amikacin 24 h (16-64 μg/mL)
Method: For planktonic bacteria, broth cultures of SA5120 in TSB and PA 60-65 in BHI were grown for 16-18 h at 37° C. on a shaker at 250 rpm. The cultures were diluted to an OD600 of 0.1 using TSB for SA5120 or BHI for PA 60-65 and incubated at 37° C. for ˜1.5 h to reach an OD600 of 0.3. Samples were treated with antibiotics in triplicate in 5-mL tubes at 37° C. on a shaker at 250 rpm for 24 h, after which 1 mL of culture from each tube was transferred into a fresh tube and centrifuged to pellet the cells. The cell pellets were washed twice in PBS, re-suspended in 1 mL of PBS, serially diluted in PBS, and plated in triplicate on TSA plates. The plates were incubated overnight at 37° C., and the resulting colonies were enumerated and used to calculate CFUs/mL.

[3] = test system: planktonic MRSA SA5120 cultures; assay: CFU assay of planktonic MRSA SA5120 cultures; type: cell-based, Staphylococcus aureus; conditions: for reduction in viability of planktonic MRSA cultures (CFU): antibiotic alone, 24 h (vancomycin 100 μg/mL)
Method: For planktonic bacteria, broth cultures of SA5120 in TSB and PA 60-65 in BHI were grown for 16-18 h at 37° C. on a shaker at 250 rpm. The cultures were diluted to an OD600 of 0.1 using TSB for SA5120 or BHI for PA 60-65 and incubated at 37° C. for ˜1.5 h to reach an OD600 of 0.3. […] The cell pellets were washed twice in PBS, re-suspended in 1 mL of PBS, serially diluted in PBS, and plated in triplicate on TSA plates. The plates were incubated overnight at 37° C., and the resulting colonies were enumerated and used to calculate CFUs/mL.

MRSA SA5120 biofilms = type: cell-based, Staphylococcus aureus
Method: as §1
MRSA biofilms in 96-well glass-bottom plates or on 5-mm glass discs were pre-treated with increasing concentrations of tGNPs from 0-100 μg/mL in PBS for 2 h. This 2-h treatment duration was selected based upon results from comparison of the extent of biofilm dispersion caused by different tGNP incubation periods used in combination with laser irradiation (FIG. 9). Following the tGNP pre-treatment, unattached tGNPs were washed away using PBS, and 40 μL of PBS was added to the wells. Biofilms were then irradiated with increasing numbers of laser pulses from 0-100 pulses at 532 nm and a fluence of ˜1.0 J/cm^2 using an Nd:YAG laser system (8-ns pulse, 1 Hz; Quantel, Bozeman, Mont.) and an automated XY-gantry sample positioning system operated through LabVIEW software (National Instruments, Austin, Tex.). After exposure, samples were analyzed using confocal microscopy or colony forming unit (CFU) assays.
as §2, with “10). Following the tGNP pre-treatment, samples were rinsed using PBS, and 40 μL of PBS was added to each well. Biofilms were then exposed to 50 laser pulses at 532 nm or sham exposed as described in Supplementary Materials. Biofilms treated with 50 laser pulses alone or PBS alone (controls) were also included.” for “10).”
Biofilms on glass discs were pre-treated with tGNPs at 70 μg/mL in PBS for 2 h (SA5120) or 1 h (PA 60-65). Samples were rinsed with PBS, 40 μL of PBS was added to each well, and biofilms were then exposed to 50 laser pulses at 532 nm or sham exposed. Biofilms treated with 50 laser pulses alone or PBS alone were also included. […]

[4] = test system: Staphylococcus epidermidis biofilm; conditions: ns-pulsed laser non-thermal shockwaves combined with 24-h gentamicin treatment; cited from earlier work
[5] = GNP-targeted laser therapy followed by 24-h antibiotic treatment at 100 μg/mL

NCC[C@H](O)C(=O)N[C@@H]1C[C@H](N)[C@@H](O[C@H]2O[C@H](CN)[C@@H](O)[C@H](O)[C@H]2O)[C@H](O)[C@H]1O[C@H]1O[C@H](CO)[C@@H](O)[C@H](N)[C@H]1O [amikacin]
reduction in P. aeruginosa biofilm viability (CFU) ([1]; GNP-targeted laser therapy in combination with 8 μg/mL amikacin): 5 log
effect of increasing amikacin from 8 to 16 μg/mL in the combination therapy ([1]; P. aeruginosa biofilms, with GNP-targeted laser therapy): did not further reduce cell viability
reduction in P. aeruginosa biofilm viability (CFU) ([1]; amikacin alone, 8 μg/mL): ~1 log
reduction in viability of planktonic P. aeruginosa cultures (CFU) [2]: ~4 log

CN[C@H](CC(C)C)C(=O)N[C@H]1C(=O)N[C@@H](CC(N)=O)C(=O)N[C@H]2C(=O)N[C@H]3C(=O)N[C@H](C(=O)N[C@H](C(=O)O)c4cc(O)cc(O)c4-c4cc3ccc4O)[C@H](O)c3ccc(c(Cl)c3)Oc3cc2cc(c3O[C@@H]2O[C@H](CO)[C@@H](O)[C@H](O)[C@H]2O[C@H]2C[C@](C)(N)[C@H](O)[C@H](C)O2)Oc2ccc(cc2Cl)[C@H]1O [vancomycin, Vancomycin]
reduction in viability of planktonic MRSA cultures (CFU) [3]: 4 log and ~3 log
effect of GNP-targeted laser therapy on antibacterial activity of vancomycin against MRSA biofilms (MRSA SA5120 biofilms; 24-h vancomycin at 100 or 1000 μg/mL): enhanced the antibacterial activity
reduction in MRSA biofilm viability (CFU) (MRSA SA5120 biofilms; [5]): 2 log

gentamicin
reduction in Staphylococcus epidermidis biofilm viability [4]: 1 log
reduction in viability of planktonic MRSA cultures (CFU) [3]: ~4 log
reduction in MRSA biofilm viability (CFU) (MRSA SA5120 biofilms; [5]): 4 log
reduction in viable bacteria in MRSA biofilms (MRSA SA5120 biofilms; GNP-targeted laser therapy followed by 24-h gentamicin at 100 μg/mL): 99.99%
reduction in MRSA biofilm viability (CFU) (MRSA SA5120 biofilms; antibiotic alone, 100 μg/mL, 24 h): 1 log

B1: papain: enzyme used to loosen S. aureus biofilms prior to CFU assay (protein, UniProt P00784 134-345, looked up)
Papain: IPEYVDWRQKGAVTPVKNQGSCGSCWAFSAVVTIEGIIKIRTGNLNEYSEQELLDCDRRSYGCNGGYPWSALQLVAQYGIHYRNTYPYEGVQRYCRSREKGPYAAKTDGVRQVQPYNEGALLYSIANQPVSVVLEAAGKDFQLYRGGIFVGPCGNKVDHAVAAVGYGPNYILIKNSWGTGWGENGYIRIKRGTGNSYGVCGLYTSSFYPVKN
viability of planktonic MRSA cultures ([3]; 100 μg/mL papain, 2 or 4 h at 37° C.): no reduction in cell viability
